Like-named read-outs stand apart in the source and are kept apart here. Some results are limits rather than exact numbers.

The values that follow come from patent US7786141B2 (Vertex Pharmaceuticals Incorporated, priority 2004, dated 2010).

One test addresses T1, M4 muscarinic receptor (Homo sapiens, UniProt P08173).
T1 construct: expressed in transfected cells; host or cells: CHO (M4-CHO)
T1 sequence (P08173 1-479): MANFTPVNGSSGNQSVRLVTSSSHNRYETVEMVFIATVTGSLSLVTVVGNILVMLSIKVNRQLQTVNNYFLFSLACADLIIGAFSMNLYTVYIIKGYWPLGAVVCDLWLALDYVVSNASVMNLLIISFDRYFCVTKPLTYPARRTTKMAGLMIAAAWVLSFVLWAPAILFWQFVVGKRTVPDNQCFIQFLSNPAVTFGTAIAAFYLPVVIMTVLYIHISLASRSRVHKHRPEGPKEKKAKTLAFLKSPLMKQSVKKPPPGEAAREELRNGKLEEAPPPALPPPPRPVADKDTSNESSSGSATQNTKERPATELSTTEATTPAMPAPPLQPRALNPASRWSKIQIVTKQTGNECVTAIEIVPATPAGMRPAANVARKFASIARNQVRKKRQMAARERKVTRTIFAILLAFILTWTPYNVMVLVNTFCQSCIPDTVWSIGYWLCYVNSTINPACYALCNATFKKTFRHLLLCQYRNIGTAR
Kind of test: Functional mobilization of intracellular calcium (FLIPR) in M4-CHO cells. Format: cell-based. To be noted: for Emax: read-out: M4 Efficacy. In a few lines: (§1)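 Measured via Fluo-3 fluorescence on a FLIPR, CHO cells with either muscarinic subtype received compound in 0.5% DMSO. Antagonism was assessed after 15 min pre-incubation followed by carbachol at each subtype's EC80; agonism from compound addition alone.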
(In general: A change in cytosolic calcium serves as a functional read-out for many receptors and channels.)

In the next test the target is T2, M1 muscarinic receptor (Homo sapiens, UniProt P11229).
T2 construct: expressed in transfected cells; host or cells: CHO (M1-CHO)
T2 sequence (P11229 1-460): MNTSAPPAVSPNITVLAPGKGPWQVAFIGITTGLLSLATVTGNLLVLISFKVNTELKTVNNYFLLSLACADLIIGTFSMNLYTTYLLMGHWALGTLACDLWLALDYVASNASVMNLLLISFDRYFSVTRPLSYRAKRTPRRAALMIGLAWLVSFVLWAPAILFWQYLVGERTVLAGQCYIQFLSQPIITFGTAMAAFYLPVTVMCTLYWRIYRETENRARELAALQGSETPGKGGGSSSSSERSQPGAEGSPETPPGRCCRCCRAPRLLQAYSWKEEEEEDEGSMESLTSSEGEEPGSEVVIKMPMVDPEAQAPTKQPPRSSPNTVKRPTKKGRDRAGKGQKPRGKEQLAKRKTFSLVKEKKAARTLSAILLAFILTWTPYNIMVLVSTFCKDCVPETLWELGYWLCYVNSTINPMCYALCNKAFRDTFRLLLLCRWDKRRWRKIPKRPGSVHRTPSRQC
Kind of test: Functional mobilization of intracellular calcium (FLIPR) in M1-CHO cells. Format: cell-based. To be noted: for Emax: read-out: M1 Efficacy. In a few lines:
as §1

Setting [1] is: M4 receptor, calcium mobilization.
Setting [2] is: M1 receptor, calcium mobilization.
Setting [3] is: M4-CHO cells, calcium mobilization (FLIPR).
[4] abbreviates: M1-CHO cells, calcium mobilization (FLIPR).

Consider `CCOC(=O)N1C2CCC1CC(CN1CCC3(CC1)CNc1ccc(F)cc13)C2` (centres unmarked) [compound 368], for which, at M4 muscarinic receptor (setting [1]), the “M4 Activity” value was “xx (activity was measured to be between 0.1 μM and 1.0 μM)”; the Emax was below 65%. At M1 muscarinic receptor (setting [2]), the “M1 Activity” value is on record as “xxx (activity was measured to be less than 0.1 μM)” and the Emax was below 65%.
Regarding `Clc1ccc2c(c1)C1(CCO2)CCN([C@@H]2C[C@@H]3CC[C@H]2C3)CC1` [compound 369], at M4 muscarinic receptor (setting [1]), the “M4 Activity” value was “xx (activity was measured to be between 0.1 μM and 1.0 μM)”; the Emax was above 85%. On M1 muscarinic receptor (setting [2]), the “M1 Activity” value was “xxx (activity was measured to be less than 0.1 μM)” and the Emax is above 85%.
For `CCOC(=O)N1CCC(N2CCC3(CC2)CN(C(=O)OCCF)c2ccc(F)cc23)CC1` [compound 370], at M4 muscarinic receptor (setting [1]), the “M4 Activity” value is “xx (activity was measured to be between 0.1 μM and 1.0 μM)”; the Emax was above 85%. At M1 muscarinic receptor (setting [2]), the “M1 Activity” value was “xxx (activity was measured to be less than 0.1 μM)” and the Emax was 65 to 85%.
On to `CCOC(=O)N1C2CCC1CC(N1CCC3(CC1)CN(C(C)=O)c1ccc(F)cc13)C2` (centres unmarked) [compound 371], for which, at M4 muscarinic receptor (setting [1]), the “M4 Activity” value is given as “x (activity was measured to be greater than 1.0 μM)” and the Emax is above 85%. Also, on M1 muscarinic receptor (setting [2]), the “M1 Activity” value is “xxx (activity was measured to be less than 0.1 μM)” and the Emax lay in the range of 65 to 85%.
In the case of `Cc1ccc2c(c1)C1(CCN(CC3CC4CCC3O4)CC1)CN2` (centres unmarked) [compound 372], at M4 muscarinic receptor (setting [1]), the “M4 Activity” value is “xx (activity was measured to be between 0.1 μM and 1.0 μM)”; the Emax is above 85%. For the same molecule, on M1 muscarinic receptor (setting [2]), the “M1 Activity” value was “xxx (activity was measured to be less than 0.1 μM)” and the Emax lay within 65 to 85%.
As for `CCOC(=O)N1CCC(N2CCC3(CC2)CN(C(C)=O)c2ccc(-c4cccc(C#N)c4)cc23)CC1` [compound 373], at M4 muscarinic receptor (setting [1]), the “M4 Activity” value is “xx (activity was measured to be between 0.1 μM and 1.0 μM)”; the Emax was above 85%. Further, on M1 muscarinic receptor (setting [2]), the “M1 Activity” value is recorded as “xxx (activity was measured to be less than 0.1 μM)” and the Emax is 65 to 85%.
On to `COC(=O)N1CCC(N2CCC3(CC2)CN(C(C)=O)c2ccc(F)cc23)CC1` [compound 374], for which, on M4 muscarinic receptor (setting [1]), the “M4 Activity” value is “x (activity was measured to be greater than 1.0 μM)” and the Emax lay in the range of 65 to 85%. Also, on M1 muscarinic receptor (setting [2]), the “M1 Activity” value was “xx (activity was measured to be between 0.1 μM and 1.0 μM)”; the Emax lay in the range of 65 to 85%.
In general, EC50 refers to the concentration giving half of the maximal effect. With `c1ccc2c(c1)NCC21CCN(C2CCCCC2)CC1` [compound 375], at M4 muscarinic receptor (setting [3]), the EC50 is below 100 nM and the Emax was in the range of 65 to 85%. For the same molecule, on M1 muscarinic receptor (setting [4]), the EC50 is below 100 nM and the Emax was above 85%.
For `Fc1ccc2c(c1)C1(CCN(C[C@H]3C[C@H]4C=C[C@H]3C4)CC1)CO2` [compound 376], on M4 muscarinic receptor (setting [3]), the EC50 is above 1000 nM and the Emax was in the range of 65 to 85%. Besides, on M1 muscarinic receptor (setting [4]), the EC50 was below 100 nM and the Emax was 65 to 85%.
Take `Fc1ccc2c(c1)C1(CCN(C3CC4CCC(C4)C3)CC1)CN2` (centres unmarked) [compound 377]: the figures for the EC50 on M4 muscarinic receptor (setting [3]) and on M1 muscarinic receptor (setting [4]) were 100 to 1000 nM and below 100 nM, respectively. Also, the Emax at M4 muscarinic receptor (setting [3]) and on M1 muscarinic receptor (setting [4]) was 65 to 85% each time.
As to `COCCOC(=O)N1C2CCC1CC(N1CCC3(CC1)COc1ccc(F)cc13)C2` (centres unmarked) [compound 378], on M4 muscarinic receptor (setting [3]), the EC50 is above 1000 nM and the Emax lay in the range of 65 to 85%. Further, on M1 muscarinic receptor (setting [4]), the EC50 lay in the range of 100 to 1000 nM and the Emax was 65 to 85%.
For `O=C(C1CC1)N1CC2(CCN(C3CC4CCC(C3)N4C(=O)OC3CCC3)CC2)c2cc(F)ccc21` (centres unmarked) [compound 379], the EC50 is 100 to 1000 nM on M4 muscarinic receptor (setting [3]) and below 100 nM on M1 muscarinic receptor (setting [4]). The Emax at M4 muscarinic receptor (setting [3]) and on M1 muscarinic receptor (setting [4]) was 65 to 85% each time.
Take `CC(=O)N1CC2(CCN(C3CCN(C(=O)OC(C)C)CC3)CC2)c2cc(C)ccc21` [compound 380]: on M4 muscarinic receptor (setting [3]), the EC50 was 100 to 1000 nM and the Emax was 65 to 85%. Besides, on M1 muscarinic receptor (setting [4]), the EC50 was below 100 nM and the Emax lay within 65 to 85%.
With `CCOC(=O)N1CCC(N2CCC3(CC2)CN(C(C)=O)c2c(F)cccc23)CC1` [compound 381], the values for the EC50 at M4 muscarinic receptor (setting [3]) and on M1 muscarinic receptor (setting [4]) were above 1000 nM and below 100 nM, respectively. The results for the Emax at M4 muscarinic receptor (setting [3]) and on M1 muscarinic receptor (setting [4]) were below 65% and 65 to 85%, respectively.
In the case of `Cc1ccc2c(c1)C1(CCN(CC3CC4CCC3C4)CC1)CN2C(=O)OC(C)(C)C` (centres unmarked) [compound 382], at M4 muscarinic receptor (setting [3]), the EC50 is above 1000 nM and the Emax fell in the range of 65 to 85%. Further, at M1 muscarinic receptor (setting [4]), the EC50 was below 100 nM and the Emax lay within 65 to 85%.
On to `COC(=O)N1C2CCC1CC(N1CCC3(CC1)CN(S(C)(=O)=O)c1ccc(F)cc13)C2` (centres unmarked) [compound 383], for which, on M4 muscarinic receptor (setting [3]), the half-maximal effective concentration (EC50) lay in the range of 100 to 1000 nM and the Emax was below 65%. Further, on M1 muscarinic receptor (setting [4]), the EC50 was below 100 nM and the Emax was 65 to 85%.
As for `CCOC(=O)N1CCC(N2CCC3(CC2)CN(C(=O)c2ccccc2)c2ccc(F)cc23)CC1` [compound 384], at M4 muscarinic receptor (setting [3]), the EC50 was above 1000 nM and the Emax is below 65%. At M1 muscarinic receptor (setting [4]), the EC50 is 100 to 1000 nM and the Emax is below 65%.
`CC(=O)CN1CC2(CCN(C[C@@H]3C[C@H]4C=C[C@H]3C4)CC2)c2cc(F)ccc21` [compound 385]: on M4 muscarinic receptor (setting [3]), the EC50 was above 1000 nM and the Emax is below 65%. Moreover, at M1 muscarinic receptor (setting [4]), the EC50 was 100 to 1000 nM and the Emax is 65 to 85%.
On to `CCCOC(=O)N1C2CCC1CC(N1CCC3(CC1)CN(C(=O)OC)c1ccc(F)cc13)C2` (centres unmarked) [compound 386], for which, on M4 muscarinic receptor (setting [3]), the EC50 was 100 to 1000 nM and the Emax was below 65%. At M1 muscarinic receptor (setting [4]), the EC50 was 100 to 1000 nM and the Emax was below 65%.
Take `CC(=O)N1CC2(CCN(C3CCCCC3)CC2)c2cc(F)ccc21` [compound 387]: at M4 muscarinic receptor (setting [3]), the EC50 was 100 to 1000 nM and the Emax is below 65%. Also, at M1 muscarinic receptor (setting [4]), the EC50 was below 100 nM and the Emax is 65 to 85%.
The corresponding values for `CS(=O)(=O)N1CC2(CCN(C3CC4CCC(C3)N4C(=O)O[C@H]3CCOC3)CC2)c2cc(F)ccc21` (some centres unmarked) [compound 388] are above 1000 nM, below 65%, below 100 nM and 65 to 85%.
The corresponding values for `CCCOC(=O)N1C2CCC1CC(N1CCC3(CC1)CN(C(=O)C1CC1)c1ccc(F)cc13)C2` (centres unmarked) [compound 389] are above 1000 nM, below 65%, 100 to 1000 nM and 65 to 85%.
The corresponding values for `CCOC(=O)N1C2CCC1CC(N1CCC3(CC1)CN(C(=O)C(C)C)c1ccc(F)cc13)C2` (centres unmarked) [compound 390] are above 1000 nM, below 65%, below 100 nM and 65 to 85%.
Take `CCOC(=O)N1CCC(N2CCC3(CC2)CN(CCOC)c2ccc(F)cc23)CC1` [compound 391]: on M4 muscarinic receptor (setting [3]), the EC50 was above 1000 nM and the Emax was below 65%. On M1 muscarinic receptor (setting [4]), the EC50 was in the range of 100 to 1000 nM and the Emax is below 65%.
Turning to `CC(=O)NC1CC2(CCN(C[C@H]3C[C@H]4C=C[C@H]3C4)CC2)c2ccccc21` (some centres unmarked) [compound 392], on M4 muscarinic receptor (setting [3]), the EC50 is above 1000 nM and the Emax was below 65%. For the same molecule, on M1 muscarinic receptor (setting [4]), the EC50 was below 100 nM and the Emax was 65 to 85%.
Taken in the same sequence, the figures for `CC(=O)N1CC2(CCN(CC3CCCCC3)CC2)c2cc(F)ccc21` [compound 393] were above 1000 nM, below 65%, below 100 nM and 65 to 85%.
With `CC(=O)N1CC2(CCN(C3CCN(C(=O)OCCF)C3)CC2)c2cc(F)ccc21` (centres unmarked) [compound 394], at M4 muscarinic receptor (setting [3]), the EC50 was in the range of 100 to 1000 nM and the Emax is below 65%. Moreover, at M1 muscarinic receptor (setting [4]), the EC50 is below 100 nM and the Emax was below 65%.
For `CC(=O)N1CC2(CCN(C3CCCN(C(=O)OC(C)C)CC3)CC2)c2cc(F)ccc21` (centres unmarked) [compound 395], on M4 muscarinic receptor (setting [3]), the half-maximal effective concentration (EC50) was above 1000 nM and the Emax was below 65%. Moreover, on M1 muscarinic receptor (setting [4]), the EC50 is below 100 nM and the Emax is below 65%.
Consider `CCOC(=O)N1CCC(N2CCC3(CC2)CN(C(=O)c2c(F)cccc2F)c2ccc(F)cc23)CC1` [compound 396], for which, at M4 muscarinic receptor (setting [3]), the EC50 was above 1000 nM and the Emax is below 65%. On M1 muscarinic receptor (setting [4]), the half-maximal effective concentration (EC50) is 100 to 1000 nM and the Emax was below 65%.
